Data published in DBAASP.
Converted amounts (≈) assume the structure as drawn. One block for each compound: values may come before it.

Experiments:
Assay in all cases: ≥ marks a high value that may be exact or a test limit, other limits are often not marked, values filed in µg/mL are converted to µM
[1] = tested on: Salmonella enterica subsp. enterica serovar Typhimurium ATCC 700408
Escherichia coli D31 = tested on: Escherichia coli D31
[2] = tested on: Klebsiella pneumoniae K6 ATCC 700603
[3] = tested on: Phytophthora nicotianae PG344
[4] = tested on: Yersinia pseudotuberculosis YPIII
Candida tropicalis = tested on: Candida tropicalis
Mammaliicoccus lentus = tested on: Mammaliicoccus lentus
[5] = tested on: Pseudomonas syringae pv. tabaci
Micrococcus luteus = tested on: Micrococcus luteus
Bacillus megaterium Bm11 = tested on: Bacillus megaterium Bm11
[6] = tested on: Staphylococcus aureus BCRC 10781
Vibrio alginolyticus = tested on: Vibrio alginolyticus
[7] = tested on: Yersinia enterocolitica BCRC 13999
[8] = tested on: Escherichia coli BCRC 10675
Vibrio harveyi = tested on: Vibrio harveyi
Vibrio parahaemolyticus = tested on: Vibrio parahaemolyticus
[9] = tested on: Listeria monocytogenes BCRC 14845
[10] = tested on: Klebsiella aerogenes BCRC 10370
[11] = tested on: Streptococcus equinus BCRC 14729
Lactococcus garvieae = tested on: Lactococcus garvieae
[12] = tested on: Vibrio anguillarum serotype O1
[13] = tested on: Staphylococcus xylosus BCRC 12930
[14] = tested on: Pseudomonas aeruginosa BCRC 10944
[15] = tested on: Enterobacter cloacae BCRC 10401
[16] = tested on: Vibrio parahaemolyticus BCRC 10806
[17] = tested on: Klebsiella oxytoca BCRC 13985
[18] = tested on: Vibrio alginolyticus BCRC 12829
Streptococcus iniae = tested on: Streptococcus iniae
[19] = tested on: Staphylococcus aureus BCRC 10780
Enterococcus faecalis = tested on: Enterococcus faecalis
[20] = tested on: Streptococcus mutans UA159
[21] = tested on: Streptococcus sobrinus ATCC 33478
Staphylococcus aureus = tested on: Staphylococcus aureus
[22] = tested on: Pseudomonas aeruginosa PAK
Escherichia coli W3110 = tested on: Escherichia coli W3110
[23] = tested on: Streptococcus sanguinis NY101

MIC [1]: ≥ 32.8 µM
MIC (Escherichia coli D31): ≥ 65.6 µM
MIC [2]: ≥ 32.8 µM
SMILES: CC[C@H](C)[C@H](NC(=O)[C@H](Cc1ccc(O)cc1)NC(=O)[C@@H](NC(=O)[C@@H]1CCCN1C(=O)[C@H](CCCN=C(N)N)NC(=O)[C@H](CC(N)=O)NC(=O)[C@H](CC(N)=O)NC(=O)CN)C(C)C)C(=O)N1CCC[C@H]1C(=O)N[C@@H](CCC(N)=O)C(=O)N1CCC[C@H]1C(=O)N[C@@H](CCCN=C(N)N)C(=O)N1CCC[C@H]1C(=O)N1CCC[C@H]1C(=O)N[C@@H](Cc1cnc[nH]1)C(=O)N1CCC[C@H]1C(=O)N[C@@H](CC(C)C)C(N)=O [GNNRPVYIPQPRPPHPL]

MIC [3]: ≥ 32 µM
MIC [4]: 9 µM (≈ 17.1 µg/mL)
MIC (Candida tropicalis): 7.4 µM (≈ 14.1 µg/mL)
MIC (Mammaliicoccus lentus): 7 µM (≈ 13.3 µg/mL)
MIC [5]: ≥ 80 µM
MIC (Micrococcus luteus): 5 µM (≈ 9.52 µg/mL)
MIC (Bacillus megaterium Bm11): 3 µM (≈ 5.71 µg/mL)
SMILES: C[C@H](NC(=O)[C@@H](N)CO)C(=O)N1CCC[C@H]1C(=O)N[C@@H](CCCN=C(N)N)C(=O)NCC(=O)N[C@H]1CSSC[C@@H](C(=O)N[C@@H](CCCCN)C(N)=O)NC(=O)[C@@H]2CCCN2C(=O)[C@H](CCCCN)NC(=O)[C@@H]2CCCN2C(=O)[C@@H]2CCCN2C(=O)[C@H](Cc2ccc(O)cc2)NC(=O)[C@H](CO)NC(=O)[C@H](CCCCN)NC(=O)[C@H]([C@@H](C)O)NC(=O)[C@H](Cc2c[nH]c3ccccc23)NC1=O [SAPRGCWTKSYPPKPCK]

MIC [6]: 6.7 µM (≈ 16 µg/mL)
MIC (Vibrio alginolyticus): 3.35 µM (≈ 8 µg/mL)
MIC [7]: 13.4 µM (≈ 32 µg/mL)
MIC [8]: 3.35 µM (≈ 8 µg/mL)
MIC (Vibrio harveyi): 1.68 µM (≈ 4 µg/mL)
MIC [9]: 6.7 µM (≈ 16 µg/mL)
MIC [10]: 6.7 µM (≈ 16 µg/mL)
MIC [11]: ≥ 53.6 µM
MIC (Lactococcus garvieae): 26.8 µM (≈ 64 µg/mL)
MIC [12]: 6.7 µM (≈ 16 µg/mL)
MIC [13]: 6.7 µM (≈ 16 µg/mL)
MIC [14]: 6.7 µM (≈ 16 µg/mL)
MIC [15]: 3.35 µM (≈ 8 µg/mL)
MIC [17]: 26.8 µM (≈ 64 µg/mL)
MIC [18]: 26.8 µM (≈ 64 µg/mL)
MIC (Streptococcus iniae): 26.8 µM (≈ 64 µg/mL)
MIC [19]: 6.7 µM (≈ 16 µg/mL)
SMILES: CC[C@H](C)[C@H](NC(=O)[C@@H](NC(=O)[C@H](Cc1ccccc1)NC(=O)[C@H](Cc1ccc(O)cc1)NC(=O)[C@H](CCCCN)NC(=O)[C@H](CCCCN)NC(=O)[C@H](CC(C)C)NC(=O)[C@H](C)NC(=O)[C@H](CC(N)=O)NC(=O)[C@H](C)NC(=O)CN)[C@@H](C)O)C(=O)N[C@@H](CC(C)C)C(=O)N[C@@H](CCCCN)C(=O)N[C@@H](CCCCN)C(=O)N[C@@H](Cc1ccccc1)C(=O)N[C@@H](Cc1ccccc1)C(=O)N[C@@H](CCCCN)C(=O)N[C@@H](CC(C)C)C(=O)N[C@@H](C)C(=O)N[C@@H](Cc1c[nH]c2ccccc12)C(=O)O [GANALKKYFTILKKFFKLAW]
MIC (Vibrio parahaemolyticus): 6.7 µM (≈ 16 µg/mL)
MIC [16]: 3.35 µM (≈ 8 µg/mL)

MIC (Enterococcus faecalis): 26.2 µM (≈ 62.5 µg/mL)
MIC [20]: 13.4 µM (≈ 32 µg/mL)
MIC [21]: 26.2 µM (≈ 62.5 µg/mL)
MIC (Staphylococcus aureus): 52.5 µM (≈ 125 µg/mL)
MIC [22]: 26.2 µM (≈ 62.5 µg/mL)
MIC (Escherichia coli W3110): 26.2 µM (≈ 62.5 µg/mL)
MIC [23]: 26.2 µM (≈ 62.5 µg/mL)
SMILES: CC[C@H](C)[C@H](NC(=O)[C@H](Cc1ccccc1)NC(=O)CNC(=O)CNC(=O)CNC(=O)[C@H](Cc1ccccc1)NC(=O)[C@H](Cc1cnc[nH]1)NC(=O)[C@H](CC(C)C)NC(=O)[C@H](Cc1cnc[nH]1)NC(=O)[C@H](Cc1ccccc1)NC(=O)[C@H](Cc1cnc[nH]1)NC(=O)[C@@H](N)Cc1ccccc1)C(=O)N[C@@H](CCCCN)C(=O)N[C@@H](Cc1cnc[nH]1)C(=O)N[C@@H](Cc1ccccc1)C(=O)N[C@H](C(=O)N[C@@H](Cc1cnc[nH]1)C(=O)N[C@@H](CCCN=C(N)N)C(=O)N[C@@H](Cc1ccccc1)C(N)=O)[C@@H](C)CC [FHFHLHFGGGFIKHFIHRF]
